Source: US20090076032A1, “Derivatives of 18Beta-Glycyrrhetinic Acid” (priority 2006, published 2009)
Where two headings read alike, the source gives them in different places.

Assays:
[1] = tested on: normal human keratinocytes (NHEKa); type: cell-based; conditions: 24 hours
Description: The cells used were normal human keratinocytes (NHEKa). All cells were cultured in T75 flasks according to the supplier's guidelines for maintenance of stocks. Frozen stocks of cells that had gone through two passages were seeded into T25 flasks at a seeding density of 2.5×10^3 cells per cm^2. The cells were then left to grow over 5 days with media changes being carried out every two days.
Cell culture treatment media were prepared for all the test compounds at four concentrations, namely 1 μM, 2.5 μM, 5 μM and 10 μM (final concentration). Control treatments on cells of normal media (no treatment) and DMSO were also carried out.
All treatment media were sterilised by filtration and added to the T25 flasks after removal of spent media. The cells were then incubated at 37° C. for 24 hours. The treatment media were removed from the T25 flasks and the cells washed with 5 ml of PBS before 1 ml of Trypsin/EDTA (TE) (Cascade, Mansfield, UK) solution was added to the flaks and left for approximately 8-10 minutes for the cells to lift off the growth surface. The trypsin was neutralised with 3 ml Trypsin Neutraliser (TN) (Cascade). The cells were then harvested and transferred to a separate 15 ml centrifuge tube for each treatment regime. The cells were spun at 180×g for 7 minutes and the medium was removed.
The cells were resuspended in 1 ml of ice cold PBS before being transferred to a microcentrifuge tube and spun at 200×g for 2 minutes. The PBS was removed and the cells were resuspended in 100 μl of binding buffer (10 mM Hepes, 140 mM NaCl, 2.5 mM CaCl2, pH 7.4) before the addition of 5 μl of a propidium iodide (PI) staining solution (BD Biosciences, Cowley, UK). The cells were incubated at 20° C. for 5 minutes before the addition of 300 μl of binding buffer followed by immediate analysis by flow cytometry. Cells taking up the PI stain were dead, cells not staining with PI were viable. The level of staining within the cells could be viewed by flow cytometry.
This type of analysis takes account of the natural variability in the growth and survival of different batches of cells. Data presented are from three repeats +SEM.

[2] = tested on: Normal human keratinocyte (NHEKa) cells; experiment: NHEKa cell proliferation assay (ATP levels, CellTitre-Glo), example 11; type: cell-based
Description: Normal human keratinocyte (NHEKa) cells were cultured in the presence and absence of set concentrations of the five 18β-glycyrrhetinic acid derivatives, in multi-well assay plates (96), over a five-day period. The cells, seeded at a density of 5,000 or 2,500 cells per well, were cultured in keratinocyte growth medium (KGM) (Cascade Biologics), to which retinol and various concentrations of the 18β-glycyrrhetinic acid derivatives dissolved in KGM and DMSO were added. Control treatments included KGM only, KGM and retinol, and KGM and DMSO.
After the five-day period, cell proliferation was determined by assay of ATP levels (directly associated with cell density) using a commercially available kit (CellTitre-Glo, Promega). In the presence of suitable controls, reduced proliferation (cell growth measured by ATP generation) indicates an anti-proliferative effect of a given 18β-glycyrrhetinic acid derivative.

NHEKa cells = experiment: NHEKa cell viability/proliferation assay, amended plate design (ATP luminescence), example 12; conditions: retinol 500 nM; for luminescence compared to the controls: 2.5 μM inhibitor
Description: To obtain a direct comparison of each inhibitor compared with carbenoxolone, the design of the assay was amended, so that each plate contained a range of different inhibitors at the same concentration compared to carbenoxolone. This removed inter-plate variation when comparing inhibitors used at the same concentration.
The medium (200 μl in each well) was replaced after 24 and 72 hours of growth with fresh pre-warmed medium containing retinol (500 nM final concentration) and the indicated inhibitor, consequently the length of treatment was 72 hours.

[3] = biological target: T1, recombinant human retinol dehydrogenase enzyme 2 (hRoDH-E2) (Homo sapiens, UniProt Q9BPW9); experiment: Spectrometric hRoDH-E2 activity assay (retinal generation at 400 nm); type: biochemical; conditions: E. coli RIL (+hRoDH-E2) SS, 15.625-250 μM, 2.5% DMSO, 125 μM retinol
T1 construct: host or cells: E. coli RIL
Description: A reaction mix was prepared, consisting of a buffered solution containing excess retinol (10 mM HEPES, 150 mM KCl, 2 mM EDTA, pH 8.0; 0.02% Tween 80; 125 μM retinol). Preliminary experiments concluded that sufficient cofactor was present in the crude enzyme source, therefore, this was not supplemented into the reaction buffer. The enzyme source was provided by the BioCatalysis Centre, University of Exeter, as a crude sonicated supernatant (SS) from harvested E. coli RIL cells transfected with the hRoDH-E2 expression vector. […] The reaction, initiated by the addition of enzyme (accounting for 5% total reaction volume), was monitored at 400 nm to measure the generation of retinal from retinol. The rate of retinal generation was determined as the change in milli-absorbance units per minute (mAbs/min).
Multi-well assay plates (96) were preloaded with DMSO (2.5% final reaction volume), containing inhibitor where required. […] The contents of each well were mixed by aspiration and the plate loaded into a multi-well plate reader set at 37° C. The generation of retinal was monitored at 400 nm over 30 minutes, during which time the reaction reached maximum velocity under uninhibited conditions after 600 seconds and began to decelerate after 1200 seconds in each case tested. […]

[4] = all four concentrations (1, 2.5, 5 and 10 μM)

T1 sequence (Q9BPW9 18-319): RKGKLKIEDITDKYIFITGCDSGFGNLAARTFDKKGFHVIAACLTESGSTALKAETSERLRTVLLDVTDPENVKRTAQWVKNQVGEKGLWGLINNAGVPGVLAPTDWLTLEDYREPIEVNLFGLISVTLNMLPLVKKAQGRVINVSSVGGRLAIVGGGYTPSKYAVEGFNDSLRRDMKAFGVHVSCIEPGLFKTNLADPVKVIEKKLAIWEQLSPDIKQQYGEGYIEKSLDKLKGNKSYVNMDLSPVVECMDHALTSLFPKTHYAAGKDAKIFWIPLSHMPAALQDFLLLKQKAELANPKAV

Row | Compound | viability of NHEKa cells (proportion of viable cells referenced to DMSO) [1, 4] | luminescence compared to the controls (NHEKa cells) | other results
1 | CC1(C)[C@@H](OC(=O)[C@@H]2CCCC[C@@H]2C(=O)O)CC[C@]2(C)[C@H]3C(=O)C=C4[C@@H]5C[C@@](C)(C(=O)O)CC[C@]5(C)CC[C@@]4(C)[C@]3(C)CC[C@@H]12 (mixture of isomers) [YP024, cis-Cyclohexane-1,2-dicarboxylic acid mono-((3S,4aR,6aR,6bS,8aS,11S, 12aR,14aR,14bS)-11-carboxy-4,4,6a,6b,8a,11,14b-heptamethyl-14-oxo-1,2,3,4,4a,5,6,6a,6b, 7,8,8a,9,10,11,12, 12a, 14, 14a, 14b-icosahydro-picen-3-yl) ester] | slight increase in viability | – | –
2 | COC(=O)[C@@]1(C)CC[C@]2(C)CCC3(C)C(=CC(=O)C4[C@@]5(C)CC[C@H](OC(=O)c6ccccc6C(=O)O)C(C)(C)C5CC[C@]43C)[C@@H]2C1 (stereo in doubt) [YP015, Phthalic acid mono-(11-methoxycarbonyl-4,4,6a,6b,8a,11,14b-heptamethyl-14-oxo-1,2,3,4,4a,5,6,6a,6b,7,8,8a,9, 10,11,12,12a, 14,14a, 14b-icosahydro-picen-3-yl) ester] | no decrease in viability | – | anti-proliferative properties compared with carbenoxolone sodium ([2]; at equal concentrations): more potent
3 | CC(=O)CC(=O)OC1CCC2(C)C(CCC3(C)C2C(=O)C=C2C4CC(C)(C(=O)O)CCC4(C)CCC23C)C1(C)C (stereo not shown) [YP016, 2,4a,6a,6b,9,9,12a-Heptamethyl-13-oxo-10-(3-oxo-butyryloxy)-1,2,3,4,4a,5,6,6a,6b, 7,8,8a,9,10,11,12, 12a,12b,13,14b-icosahydro-picene-2-carboxylic acid] | no decrease in viability | – | –
4 | CC(C)(CC(=O)O[C@H]1CC[C@]2(C)[C@H]3C(=O)C=C4[C@@H]5C[C@@](C)(C(=O)O)CC[C@]5(C)CC[C@@]4(C)[C@]3(C)CC[C@H]2C1(C)C)C(=O)O [YP022, 2,2-Dimethyl-succinic acid 4-((3S,4aR,6aR,6bS,8aS,11S,12aR,14aR,14bS)-11-carboxy-4,4,6a,6b,8a,11,14b-heptamethyl-14-oxo-1,2,3,4,4a,5,6,6a,6b,7,8,8a,9,10,11,12, 12a,14,14a, 14b-icosahydro-picen-3-yl) ester] | – | significantly less luminescence | –
5 | CC1(C)[C@@H](OC(=O)C2=C(C(=O)O)CCC2)CC[C@]2(C)[C@H]3C(=O)C=C4[C@@H]5C[C@@](C)(C(=O)O)CC[C@]5(C)CC[C@@]4(C)[C@]3(C)CC[C@@H]12 [YP026, Cyclopent-1-ene-1,2-dicarboxylic acid mono-((3S,4aR,6aR,6bS,8aS,11S,12aR, 14aR,14bS)-11-carboxy-4,4,6a,6b,8a,11,14b-heptamethyl-14-oxo-1,2,3,4,4a,5,6,6a,6b,7,8,8a,9,10,11,12,12a,14,14a, 14b-icosahydro-picen-3-yl) ester] | slight increase in viability | significantly less luminescence | –
6 | CC1(C)[C@@H](OC(=O)CCC(=O)O)CC[C@]2(C)[C@H]3C(=O)C=C4[C@@H]5C[C@@](C)(C(=O)O)CC[C@]5(C)CC[C@@]4(C)[C@]3(C)CC[C@@H]12 [carbenoxolone sodium, reference compound] | – | – | effect on NHEKa cell proliferation (ATP levels compared to the controls) ([2]; five-day culture, with retinol, various concentrations): suppresses NHEKa cell proliferation
7 | CC1(C)[C@@H](OC(=O)CCC(=O)O)CC[C@]2(C)[C@H]3C(=O)C=C4[C@@H]5C[C@@](C)(C(=O)O)CC[C@]5(C)CC[C@@]4(C)[C@]3(C)CC[C@@H]12 [carbenoxolone, reference compound] | – | significantly less luminescence | viability of NHEKa cells (proportion of viable cells referenced to DMSO) ([1]; 1 μM and 2.5 μM): slight decrease in viability; inhibition of recombinant hRoDH-E2 activity (generation of retinal from retinol) [3]: reduce the generation of retinal from retinol; luminescence detected compared to the untreated control (NHEKa cells; 5.0 μM inhibitor): 41%
8 | trans-Cyclohexane-1,2-dicarboxylic acid mono-((3S,4aR,6aR,6bS,8aS,11S, 12aR,14aR,14bS)-11-carboxy-4,4,6a,6b,8a,11,14b-heptamethyl-14-oxo-1,2,3,4,4a,5,6,6a,6b, 7,8,8a,9,10,11,12,12a,14,14a, 14b-icosahydro-picen-3-yl) ester [YP023] | slight increase in viability | – | –
